Measured values from ChEMBL document CHEMBL1201862, “PubChem BioAssay data set” (2004).
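Five compound concentrations were applied to cells in 96-well plates for 48 hours; endpoints were derived by simple linear interpolation of the resulting dose-response curve. GI50 = concentration required for 50% inhibition of growth.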 The source made the active and inactive calls. Cut-off read from the data, not from the text of the source: active = GI50 up to about 1.1 µM and inactive = higher. Where a SMILES comes first, the peptide text is derived from it.

Legend:
Assay in all cases: NCI anticancer screen, dose series, 48 h
SK-MEL-2 = system: SK-MEL-2
UACC-62 = system: UACC-62
HT-29 = system: HT-29
SF-295 = system: SF-295
LOX IMVI = system: LOX IMVI
UO-31 = system: UO-31
NCI-H226 = system: NCI-H226
U-251 = system: U-251
UACC-257 = system: UACC-257
A549 = system: A549
HCT-15 = system: HCT-15
MOLT-4 = system: MOLT-4
HCT-116 = system: HCT-116
786-0 = system: 786-0
TK-10 = system: TK-10
RPMI-8226 = system: RPMI-8226
Malme-3M = system: Malme-3M

Row | SMILES | GI50 (SK-MEL-2) | GI50 (UACC-62) | GI50 (HT-29) | GI50 (SF-295) | GI50 (LOX IMVI) | GI50 (UO-31) | GI50 (NCI-H226) | GI50 (U-251) | GI50 (UACC-257) | GI50 (A549) | GI50 (HCT-15) [µM] | GI50 (MOLT-4) | GI50 (HCT-116) | GI50 (786-0) | GI50 (TK-10) | GI50 (RPMI-8226) | GI50 (Malme-3M)
1 | CN(C)c1cccc(OC(=O)NCCCl)c1 | > 100 µM (inactive) | > 100 µM (inactive) | > 100 µM (inactive) | > 100 µM (inactive) | > 100 µM (inactive) | > 100 µM (inactive) | > 100 µM (inactive) | > 100 µM (inactive) | > 100 µM (inactive) | > 100 µM (inactive) | > 100 | > 100 µM (inactive) | > 100 µM (inactive) | – | – | – | –
2 | CCOC(=O)C(Sc1ccccc1)c1c(OC)cc(=O)oc1/C=[N+](/[O-])c1ccc(N(C)C)cc1 (centres undefined) | 24.9 µM (inactive) | 22.6 µM (inactive) | 16.3 µM (inactive) | 24.4 µM (inactive) | 13.4 µM (inactive) | 18.5 µM (inactive) | – | 24.7 µM (inactive) | 14.6 µM (inactive) | 28.4 µM (inactive) | 15.4 | 13.8 µM (inactive) | – | 19.7 µM (inactive) | 35 µM (inactive) | 19.6 µM (inactive) | 17.2 µM (inactive)
3 | COc1ccc(C(N)=O)c(OC)c1OCc1ccccc1 | > 100 µM (inactive) | > 100 µM (inactive) | > 100 µM (inactive) | > 100 µM (inactive) | > 100 µM (inactive) | > 100 µM (inactive) | > 100 µM (inactive) | > 100 µM (inactive) | – | > 100 µM (inactive) | > 100 | > 100 µM (inactive) | > 100 µM (inactive) | > 100 µM (inactive) | > 100 µM (inactive) | > 100 µM (inactive) | –
4 | Cc1nc2c(=O)n(C)c(=O)nc-2n(-c2ccc(Cl)cc2)c1C | > 100 µM (inactive) | 43.9 µM (inactive) | > 100 µM (inactive) | > 100 µM (inactive) | – | 80.4 µM (inactive) | > 100 µM (inactive) | > 100 µM (inactive) | > 100 µM (inactive) | > 100 µM (inactive) | 61.9 | – | – | > 100 µM (inactive) | > 100 µM (inactive) | – | > 100 µM (inactive)
5 | CCC1=C(C)/C(=C/c2[nH]c(CBr)c(CC)c2C)N=C1CBr | 22.2 µM (inactive) | 6.05 µM (inactive) | 12.5 µM (inactive) | 20.9 µM (inactive) | > 100 µM (inactive) | 3.52 µM (inactive) | – | 11.3 µM (inactive) | > 10 µM (inactive) | 18.4 µM (inactive) | 8.71 | 5.81 µM (inactive) | – | 17 µM (inactive) | 18.4 µM (inactive) | 5.66 µM (inactive) | 20.7 µM (inactive)
6 | CC1NC(=O)CNC(=O)CNC(=O)C(Cc2ccc(O)cc2)NC(=O)C(C(C)C)NC(=O)C(C)NC1=O (centres undefined) (cyclo(GGAAVY); configuration not given here) | > 100 µM (inactive) | > 100 µM (inactive) | > 100 µM (inactive) | > 100 µM (inactive) | > 100 µM (inactive) | > 100 µM (inactive) | > 100 µM (inactive) | > 100 µM (inactive) | > 100 µM (inactive) | > 100 µM (inactive) | > 100 | > 100 µM (inactive) | > 100 µM (inactive) | – | – | > 100 µM (inactive) | –
7 | CCOc1ccc(OCC)c([P+](c2ccccc2)(c2ccccc2)c2ccccc2)c1 | – | 0.792 µM (active) | 0.315 µM (active) | 0.33 µM (active) | 0.35 µM (active) | – | 0.406 µM (active) | 0.204 µM (active) | 0.215 µM (active) | 0.443 µM (active) | – | – | 0.27 µM (active) | 0.879 µM (active) | 0.495 µM (active) | 0.286 µM (active) | 1.28 µM (inactive)
8 | O=C(Nc1ccccc1-c1nn(CN2CCNCC2)c(=S)n(CN2CCNCC2)c1=O)C(F)(F)F | 19.4 µM (inactive) | 18.3 µM (inactive) | 23.4 µM (inactive) | 29 µM (inactive) | 18.8 µM (inactive) | 13.6 µM (inactive) | 17.2 µM (inactive) | 16.9 µM (inactive) | 17.2 µM (inactive) | 22.3 µM (inactive) | 15.9 | 23 µM (inactive) | 17.8 µM (inactive) | 18.7 µM (inactive) | 27.5 µM (inactive) | – | 17.9 µM (inactive)
